From PubChem BioAssay AID256 (DTP/NCI, 2004)
“And” between values parts separate entries of the source, which are not always exact repeats. Equal values may be shown once. Toxic doses and inconclusive results are not listed. The calls were made as follows: active = survival T/C of 150% or more; inactive = T/C below 125% in these data.

Tested on: CD2F1 mice, L1210 leukemia ip, survival T/C
Assay: NCI In Vivo Anticancer Drug Screen. Data for tumor model L1210 Leukemia (intraperitoneal) in CD2F1 (CDF1) mice
Conditions: higher = longer survival
Method in brief: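 Tumor-bearing mice (transplanted tumor) were split into treated and vehicle control groups, and the measured endpoint of each treated group was divided by that of its vehicle controls.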

[1] = endpoint: mean survival time, dose: 12.5 mg/kg/injection, schedule: Q01DX009 (ip), vehicle: saline with Tween-80
[2] = endpoint: mean survival time, dose: 25.0 mg/kg/injection, schedule: Q01DX009 (ip), vehicle: saline with Tween-80
[3] = endpoint: mean survival time, dose: 50.0 mg/kg/injection, schedule: Q01DX009 (ip), vehicle: saline with Tween-80
[4] = endpoint: mean survival time, dose: 100.0 mg/kg/injection, schedule: Q01DX001 (ip), vehicle: saline
[5] = endpoint: mean survival time, dose: 200.0 mg/kg/injection, schedule: Q01DX001 (ip), vehicle: saline
[6] = endpoint: mean survival time, dose: 400.0 mg/kg/injection, schedule: Q01DX001 (ip), vehicle: saline

Measured: T/C

[CH3][Sn]1([CH3])[O]C2C(CO)OC(n3ccc(N)nc3=O)C2[O]1 (stereo unspecified)
inactive: endpoint: mean survival time, dose: 12.5 mg/kg/injection, schedule: Q01DX005 (ip), vehicle: other 103 % of control | endpoint: mean survival time, dose: 25.0 mg/kg/injection, schedule: Q01DX005 (ip), vehicle: other 92 % of control | endpoint: mean survival time, dose: 50.0 mg/kg/injection, schedule: Q01DX005 (ip), vehicle: other 106 % of control

CCC1(c2ccccc2)C(=O)N(CBr)C(=O)N(CBr)C1=O
inactive: [1] 98 % of control | [2] 93 % of control | [3] 96 % of control

[CH3][Pb]([CH3])([CH3])[NH]C#N
inactive: endpoint: mean survival time, dose: 2.5 mg/kg/injection, schedule: Q01DX009 (ip), vehicle: saline 98 % of control | endpoint: mean survival time, dose: 5.0 mg/kg/injection, schedule: Q01DX009 (ip), vehicle: saline 87 % of control

OCCCCCCl
inactive: [4] 104 % of control | [5] 98 % of control | [6] 101 % of control

CCOC(=O)C(C#N)CC (stereo unspecified)
inactive: [4] 98 % of control | [5] 98 % of control | [6] 107 % of control

Cc1cccc(C)c1NC(=O)/C=C/c1ccccc1
inactive: endpoint: mean survival time, dose: 100.0 mg/kg/injection, schedule: Q04DX002 (ip), vehicle: saline with Tween-80 94 % of control | endpoint: mean survival time, dose: 200.0 mg/kg/injection, schedule: Q04DX002 (ip), vehicle: saline with Tween-80 90 % of control | endpoint: mean survival time, dose: 400.0 mg/kg/injection, schedule: Q04DX002 (ip), vehicle: saline with Tween-80 98 % of control

O=C(/C=C/c1ccccc1O)/C=C/c1ccccc1O
inactive: [2] 107 % of control | endpoint: mean survival time, dose: 25.0 mg/kg/injection, schedule: Q04DX003 (ip), vehicle: saline with Tween-80 111 % of control | [3] 94 % of control | endpoint: mean survival time, dose: 50.0 mg/kg/injection, schedule: Q04DX003 (ip), vehicle: saline with Tween-80 101 % of control | endpoint: mean survival time, dose: 100.0 mg/kg/injection, schedule: Q04DX003 (ip), vehicle: saline with Tween-80 105 % of control

COc1ccn(C2OCCC(OC(C)=O)C2O)c(=O)n1 (stereo unspecified)
inactive: endpoint: median survival time, dose: 12.5 mg/kg/injection, schedule: Q01DX005 (ip), vehicle: alkali diluted with saline 107 % of control | endpoint: median survival time, dose: 25.0 mg/kg/injection, schedule: Q01DX005 (ip), vehicle: alkali diluted with saline 120 % of control | endpoint: median survival time, dose: 50.0 mg/kg/injection, schedule: Q01DX005 (ip), vehicle: alkali diluted with saline 120 % of control | endpoint: median survival time, dose: 100.0 mg/kg/injection, schedule: Q01DX005 (ip), vehicle: alkali diluted with saline 102 % of control | endpoint: median survival time, dose: 200.0 mg/kg/injection, schedule: Q01DX005 (ip), vehicle: alkali diluted with saline 109 % of control

CCc1ccccc1N1CCN(C(=O)c2cc(OC)c(OC)c(OC)c2)CC1
inactive: endpoint: mean survival time, dose: 100.0 mg/kg/injection, schedule: Q01DX009 (ip), vehicle: acetone 118 % of control | endpoint: mean survival time, dose: 150.0 mg/kg/injection, schedule: Q01DX009 (ip), vehicle: acetone 124 % of control | endpoint: mean survival time, dose: 225.0 mg/kg/injection, schedule: Q01DX009 (ip), vehicle: acetone 90 % of control

S=C1CCNCC1
inactive: endpoint: mean survival time, dose: 12.5 mg/kg/injection, schedule: Q01DX009 (ip), vehicle: saline 98 % of control | endpoint: mean survival time, dose: 12.5 mg/kg/injection, schedule: Q04DX003 (ip), vehicle: saline 100 % of control | endpoint: mean survival time, dose: 25.0 mg/kg/injection, schedule: Q01DX009 (ip), vehicle: saline 103 % of control | endpoint: mean survival time, dose: 25.0 mg/kg/injection, schedule: Q04DX003 (ip), vehicle: saline 96 % of control | endpoint: mean survival time, dose: 50.0 mg/kg/injection, schedule: Q01DX009 (ip), vehicle: saline 104 % of control | endpoint: mean survival time, dose: 50.0 mg/kg/injection, schedule: Q04DX003 (ip), vehicle: saline 87 % of control

Cc1oc2c(C)c3oc(=O)cc(C)c3cc2c1CCl
inactive: [1] 101 % of control and 105 % of control | [2] 96 % of control and 105 % of control | [3] 96 % of control and 108 % of control | endpoint: mean survival time, dose: 100.0 mg/kg/injection, schedule: Q01DX009 (ip), vehicle: saline with Tween-80 109 % of control | endpoint: mean survival time, dose: 200.0 mg/kg/injection, schedule: Q01DX009 (ip), vehicle: saline with Tween-80 91 % of control
